In patent US6977082B2, “High efficacy antibacterial compositions having enhanced esthetic and skin care properties” (The Dial Corporation, priority 2001, dated 2005):

Assay: Repeat Application Soap Chamber (irritation) Test
Settings: occlusive patches on volar forearm, six days, dilute solutions
Protocol: Twelve male and female subjects between the ages of 18 and 65, who were in good health, were enrolled in the test. Dilute solutions of all test compositions were made each day of patching. Patches were totally occlusive chambers, 12 mm in diameter, applied to the volar forearm for a total of six days. Expert visual gradings, using a four-point scale for erythema, scaling, and fissuring were used as the objective measure of observation for this study. Grading was performed at baseline (i.e., when panelists were enrolled), 30 minutes after patch removal on days one to six, and at 24 hours on days one to six. A maximum for each tested characteristic was established as a “3” score.

SMILES: CCCCCCCCCCCCOS(=O)(=O)[O-].[Na+] [SLS, sodium lauryl sulfate]
- irritation potential, ranking from highest to lowest: SLS>HCPHW-E>HCPHW-H>HCPHW-G>HCPHW-F>Composition A>Negative Control
